This note sets out measurements from patent US20230234920A1, “Azirine Containing Compounds as Anti-Angiogenesis Agents and a Process for the Preparation Thereof” (COUNCIL OF SCIENTIFIC & INDUSTRIAL RESEARCH, priority 2020, published 2023).

The subject of data set [1] is HUVECs. The experiment in a line: Capillary-like tube formation assay (tubulogenesis). Type of data set: cell-based, human. Conditions: for tubule formation: 6 h. On the procedure: FIG. 2 represents effect of Compound 1 on capillary tube formation of HUVECs. Endothelial cells in Matrigel were incubated with ECM basal medium in the presence of compound 1 at the indicated concentrations for 6 h. Cell viability was assessed by Calcein-AM dye added few min. before the completion of 6 h. then photographs at 10×magnification were taken using an inverted microscope. The tubule length of HUVECs was quantified by Leica QWin software. Tubule network formation is expressed as a percentage of that vehicle (0.1% DMSO) treated cells (control).
FIG. 9 represents effect of racemic mixture (chiral isomer 1-1 and chiral isomer 2-1) of Compound 1 on capillary tube formation of HUVECs. Endothelial cells seeded in matrigel were incubated at the indicated concentrations of compound 1 racemic mixtures (1-1 and 2-1) with ECM basal medium for 6 h. Calcein-AM treatment was added to the ECs few minutes before completion of 6 h and pictures were captured using an inverted microscope at 10×magnification. The tubular structures of HUVECs were measured using Leica QWin software and tubulogenesis was expressed as a % of that vehicle (0.1% DMSO) treated cells (control) well.
HUVEC cells were incubated with or without sunitinib (20 nM) for 6 h at indicated concentrations of chiral isomers of Compound 1 (1-1 and 2-1). Photographs were taken using an inverted microscope at 10×magnification after Calcein-AM treatment to the ECs few minutes before completion of 6 h. The tubule length of HUVECs was quantified by Leica QWin software represented as a % of that vehicle (0.1% DMSO) treated cells (control) well.
To examine the effect of Compound 1 on angiogenesis, capillary tube formation assay was performed on regular or reduced growth factor Matrigel, taking VEGF (50 ng/mL) treated cells as a positive control and sunitinib (50 nM) as a negative control (FIG. 2). HUVECs seeded onto the matrigel with compound 1 at different concentrations of (10 μM, 5 μM, 1 μM, 800 nM, 500 nM, 250 nM, 125 nM, 75 nM, 50 nM, 25 nM and 10 nM) were incubated for six hours.
HUVECs (Human Umbilical Vein Endothelial Cells) were seeded onto the pre-coated matrigel (CORNING; 354230) in 96 wells plate at the rate of 11000 cells/well in incomplete ECM basal medium. Control group received vehicle, VEGF at 50 ng/mL as a positive and sunitinib at 50 nM as a negative control were used. Compound 1 at different dose concentrations (10 μM, 5 μM, 1 μM, 800 nM, 500 nM, 250 nM, 100 nM, 75 nM, 50 nM and 25 nM) were employed on seeded HUVECs in incomplete medium. Post 6 h of incubation Calcein-AM (Invitrogen) was added to all the respective groups and then the tubule pattern was observed and photographs were taken using an inverted fluorescent microscope (DM 6000, Leica Microsystems, USA). Relative tubule lengths were measured using Leica Q-Win software version 3.5.1. (Leica Microsystems, Switzerland).

Data set [2] has as its system Endothelin-1 receptor. The experiment in a line: Endothelin-1 induced contraction of isolated artery rings. Further details: species or system mice. Conditions: all concentrations of ET-1. The source says:
FIG. 15 represents effect of Compound 1 on endothelin-1 concentration-response curves. (A) Concentration-response curve of endothelin-1 in isolated carotid arteries of vehicle-treated (Control) and Compound 1 treated mice. (B) Concentration-response curve of endothelin-1 in isolated carotid arteries of vehicle-treated (Control) and compound 3 along with compound 8 treated mice.
To test for the selectivity of the putative Endothelin-1 receptor, we applied endothelin-1 or Compound 1 in a concentration dependent manner to the […] to observe its contraction inhibition activity (FIG. 15).

The nature of data set [3]: Intramuscular pharmacokinetic study of chiral isomers 1 and 2. Type of data set: in vivo, male Sprague Dawley (SD) rats. The following applies: IM 20 mg/kg. The method, then: In vivo pharmacokinetic study was performed in male Sprague Dawley (SD) rats (n=4). Intramuscular (IM) formulation of compound 1 Chiral 1 and 2 were prepared by individually dissolving accurately weighed quantity of compound 1, chiral isomers 1 and 2 (20 mg) in 1 mL of olive oil followed by vortexing for 2 min and sterilize through syringe filter. Blood samples were collected from the retro orbital plexus of rats under light ether anesthesia into microfuge tubes containing heparin as an anti-coagulant at 0.25, 0.5, 1, 3, 5, 7, 9, 24, 30, 48 and 72 hours post-dosing after intramuscular dose. Plasma sample was harvested by centrifuging the blood at 13000 rpm for 10 min on Sigma 1-15 K (Frankfurt, Germany) and stored frozen at −70±10° C. until bioanalysis. Each plasma sample (100 μl) was processed using protein precipitation method using 200 μl acetonitrile containing medicarpine as internal standard (I.S.) as protein precipitant, and 10 μl of the supernatant was injected for LC-MS/MS.

A short description of data set [4]: Intramuscular pharmacokinetic study of bulk compound 1 and chiral isomers. The following applies: IM 20 mg/kg. In kind it is in vivo, male Sprague Dawley (SD) rats. On the procedure:
In vivo pharmacokinetic study was performed in male Sprague Dawley (SD) rats (n=4). Intramuscular (IM) formulation of bulk of compound 1 as well as chiral isomer-1 and chiral isomer-2 was prepared by dissolving accurately weighed quantity of compound 1 (20 mg) in 1 mL of olive oil followed by vortexing for 2 min and sterilize through syringe filter. Blood samples were collected from the retro orbital plexus of rats under light ether anesthesia into microfuge tubes containing heparin as an anti-coagulant at 0.25, 0.5, 1, 3, 5, 7, 9, 24, 30, 48 and 72 hours post-dosing after intramuscular dose. Plasma sample was harvested by centrifuging the blood at 13000 rpm for 10 min on Sigma 1-15 K (Frankfurt, Germany) and stored frozen at −70±10° C. until bioanalysis. Each plasma sample (100 μl) was processed using protein precipitation method using 200 μl acetonitrile containing medicarpine as internal standard (I.S.) as protein precipitant, and 10 μl of the supernatant was injected for LC-MS/MS.

Data set [5] deals with HUVECs. The experiment in a line: Wound healing (scratch) migration assay. In kind it is cell-based, human. Conditions: 50 ng/mL, positive control. The method, then:
FIG. 4 represents In vitro wound closure assay showing effect of Compound 1 migration of HUVECs. (A) ECs were incubated with 2.5% FBS in the presence of VEGF, sunitinib and Compound 1 at the indicated concentrations for 24 h after linear scratched wounds were created in the confluent cells. Post treatment photographs were taken at 0 hr, 12 h and 24 h using an inverted microscope at 10×magnification. (B) Data were quantified using Image J software and graphs were plotted by calculating the % migration of that vehicle treated cells (control). Compound 1 inhibits the wound closure by ECs in a dose dependent manner. The values represent the mean±SEM from (n=3) independent experiments with significant difference compared from control at *p<0.05.
As per previous reports, some anti-angiogenic compounds also show anti-migratory effect by modulating the expression of proteins responsible for blood vessels formation. A Scratch was made to the confluent endothelial cells containing VEGF (50 ng/mL) and sunitinib (50 nM) as a positive and negative control respectively and Compound 1 at 250 nM and 125 nM as a test compound. […] This might contribute to its potent anti-angiogenic effect.
Endothelial cells were grown inside 6-well plate at a confluency rate of 90%. And then with the help of 200 μL tip a straight line scratch was made in the middle of the grown ECs. After giving a gentle wash with 1×PBS, control group received vehicle in 2.5% FBS media. VEGF at 50 ng/mL as a positive control and sunitinib at 50 nM concentration was used as a negative control. Compound 1 at a dose concentration of 250 nM and 125 nM were used onto the wounded cells to observe its anti-migratory effect. After 0 h, 12 h and 24 h of post treatment the wound closure area was observed and micrographed using an inverted microscope (Olympus, Centre Valley, Pa., USA) and were analysed by Image J software. Control well at 100% was used to express inhibition percentage and the assay was performed for three-five times independently.

In the case of `CCCCCCCCCCCCC1=NC1C(=O)OCC` (centres unmarked) [Compound 3, Ethyl 3-dodecyl-2H-azirine-2-carboxylate], the IC50 value result in data set [1] (endothelial tubule network assay, result in words) is “Not Active”. In addition, the “effect on ET-1 induced contraction of aortic rings” value in data set [2] was “no effect”.

What is called IC50 is the concentration that inhibits the measured activity by half. Consider `CCOC(=O)C1N=C1CCc1ccc(Cl)cc1` (centres unmarked) [Compound 8, Ethyl 3-(4-chlorophenethyl)-2H-azirine-2-carboxylate], for which, in data set [1] (Homo sapiens, HUVEC, endothelial tubule network assay, anti-angiogenic activity, read-out: IC50 value), the half-inhibitory concentration (IC50) worked out at 500 nM. Further, the “effect on ET-1 induced contraction of aortic rings” value in data set [2] is given as “no effect”.

The term Tmax denotes the time at which the peak concentration occurs. In general, Cmax refers to the highest concentration seen after dosing. On to `CCOC(=O)[C@H]1N=C1CCc1ccc(OC)cc1` [chiral isomer (2-1)], for which the time of peak concentration (Tmax) in data set [3] is listed as 3 h; in data set [4] (mean ± S.D., n = 4) it was 3 ± 2 h. The Plasma concentration in data set [3] (0.25 h) worked out at 6640 ± 2170 ng/mL; in data set [3] (0.5 h) it was 7440 ± 400 ng/mL; in data set [3] (1 h) it was 9270 ± 1960 ng/mL; in data set [3] (3 h), 10820 ± 1130 ng/mL; in data set [3] (5 h), 7500 ± 560 ng/mL; in data set [3] (7 h), 4300 ± 620 ng/mL. For the same molecule, the Plasma concentration was 2000 ± 660 ng/mL in data set [3] (9 h); 180 ± 13 ng/mL in data set [3] (24 h); 130 ± 15 ng/mL in data set [3] (30 h); 76 ± 4 ng/mL in data set [3] (48 h); 44 ± 6 ng/mL in data set [3] (72 h); 409 ± 150 ng/mL in data set [4] (0.25 h). The Plasma concentration is 767.6 ± 50 ng/mL in data set [4] (0.5 h); 557 ± 260 ng/mL in data set [4] (1 h); 745 ± 120 ng/mL in data set [4] (3 h); 762 ± 340 ng/mL in data set [4] (5 h); 536 ± 170 ng/mL in data set [4] (7 h); 463 ± 370 ng/mL in data set [4] (9 h). The Plasma concentration in data set [4] (24 h) turned out to be 323 ± 40 ng/mL; in data set [4] (30 h), 246 ± 120 ng/mL; in data set [4] (48 h), 169.3 ± 100 ng/mL; in data set [4] (72 h), 44.3 ± 6 ng/mL. Also, the AUC0-72 in data set [3] (mean ± S.D., n = 4) amounted to 84900 ± 6020 ng·h/mL; in data set [4] (mean ± S.D., n = 4), 19540 ± 3260 ng·h/mL. The “AUC0-∞” value was 85480 ± 6100 ng·h/mL in data set [3] (mean ± S.D., n = 4) and 20644 ± 2977 ng·h/mL in data set [4] (mean ± S.D., n = 4). For the same molecule, the Cl in data set [3] (mean ± S.D., n = 4) was 3.83 ± 0.17 mL/min/kg; in data set [4] (mean ± S.D., n = 4), 16.4 ± 2.17 mL/min/kg. For the same molecule, the maximum concentration (Cmax) in data set [3] (mean ± S.D., n = 4) is 10820 ± 1130 ng/mL; in data set [4] (mean ± S.D., n = 4), 945 ± 143 ng/mL. Also, the Vd was 3.9 ± 0.24 L/kg in data set [3] (mean ± S.D., n = 4) and 24.497 ± 6.339 L/kg in data set [4] (mean ± S.D., n = 4). In addition, the t1/2 in data set [3] (mean ± S.D., n = 4) was found to be 9.14 ± 0.12 h; in data set [4] (mean ± S.D., n = 4), 17.11 ± 2.454 h. Also, the tubule formation result in data set [1] (100 nM combined with sunitinib at 20 nM) is on record as “around 30%”; in data set [1] (250 nM), 100%; in data set [1] (500 nM) it was 50%; in data set [1] (500 nM, listed as isomer (2-1)), 50%; in data set [1] (1 μM) it was 50%. The molecule further gave an MRT in data set [4] (mean ± S.D., n = 4, in h (unit assumed)) of 22.671 ± 4.539.

VEGF [reference compound] showed a wound closure in data set [5] of 90%.
